In ChEMBL document CHEMBL1152560, “Substituted 2-arylbenzothiazoles as kinase inhibitors: hit-to-lead optimization” (Bioorg Med Chem, 2009):

Legend:
[1] = target: T1, Aurora kinase A (Homo sapiens) (UniProt O14965); assay: Residual activity of Aurora-A at 10 uM by microplate scintillation counting
T1 sequence (whole entry): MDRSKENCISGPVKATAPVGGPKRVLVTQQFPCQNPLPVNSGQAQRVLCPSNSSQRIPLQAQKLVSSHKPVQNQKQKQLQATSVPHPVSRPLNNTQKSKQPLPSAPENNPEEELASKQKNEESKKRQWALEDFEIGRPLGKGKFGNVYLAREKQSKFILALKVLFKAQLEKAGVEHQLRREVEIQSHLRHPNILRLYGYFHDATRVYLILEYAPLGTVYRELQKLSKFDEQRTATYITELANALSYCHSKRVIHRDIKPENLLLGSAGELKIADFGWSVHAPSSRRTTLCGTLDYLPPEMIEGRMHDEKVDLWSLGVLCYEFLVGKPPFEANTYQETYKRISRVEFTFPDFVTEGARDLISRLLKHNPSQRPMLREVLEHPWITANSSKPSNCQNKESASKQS

[2] = target: T2, Serine/threonine-protein kinase PLK4 (Homo sapiens) (UniProt O00444); assay: Residual activity of SAK at 0.1 uM by microplate scintillation counting
T2 sequence (whole entry): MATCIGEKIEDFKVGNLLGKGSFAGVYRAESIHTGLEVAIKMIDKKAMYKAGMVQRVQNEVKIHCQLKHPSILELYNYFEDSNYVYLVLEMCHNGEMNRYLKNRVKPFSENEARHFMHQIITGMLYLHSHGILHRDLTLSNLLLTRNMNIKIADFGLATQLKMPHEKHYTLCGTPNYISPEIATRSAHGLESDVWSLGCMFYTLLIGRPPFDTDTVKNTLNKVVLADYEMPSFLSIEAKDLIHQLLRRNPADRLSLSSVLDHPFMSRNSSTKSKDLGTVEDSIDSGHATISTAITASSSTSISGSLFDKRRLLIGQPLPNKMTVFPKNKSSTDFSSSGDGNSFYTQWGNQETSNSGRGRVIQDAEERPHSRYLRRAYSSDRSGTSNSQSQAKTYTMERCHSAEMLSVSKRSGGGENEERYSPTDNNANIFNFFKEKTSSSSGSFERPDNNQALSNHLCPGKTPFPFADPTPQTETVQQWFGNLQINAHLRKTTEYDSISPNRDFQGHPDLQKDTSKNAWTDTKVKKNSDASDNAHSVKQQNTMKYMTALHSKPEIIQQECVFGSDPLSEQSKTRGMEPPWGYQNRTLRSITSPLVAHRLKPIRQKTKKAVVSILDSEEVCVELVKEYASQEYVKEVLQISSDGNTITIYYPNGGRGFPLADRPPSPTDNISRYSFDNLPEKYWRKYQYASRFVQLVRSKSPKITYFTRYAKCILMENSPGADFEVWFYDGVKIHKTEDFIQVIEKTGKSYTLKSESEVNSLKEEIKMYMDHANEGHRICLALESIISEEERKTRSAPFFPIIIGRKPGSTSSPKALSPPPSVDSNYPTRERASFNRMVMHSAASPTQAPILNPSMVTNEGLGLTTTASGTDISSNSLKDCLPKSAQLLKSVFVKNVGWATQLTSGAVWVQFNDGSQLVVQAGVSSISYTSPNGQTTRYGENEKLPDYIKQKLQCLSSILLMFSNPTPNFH

[3] = target: Tyrosine-protein kinase BTK (Homo sapiens) (UniProt Q06187); assay: Residual activity of BTK at 1 uM by microplate scintillation counting
Chain of Tyrosine-protein kinase BTK (Homo sapiens) (Q06187 whole entry): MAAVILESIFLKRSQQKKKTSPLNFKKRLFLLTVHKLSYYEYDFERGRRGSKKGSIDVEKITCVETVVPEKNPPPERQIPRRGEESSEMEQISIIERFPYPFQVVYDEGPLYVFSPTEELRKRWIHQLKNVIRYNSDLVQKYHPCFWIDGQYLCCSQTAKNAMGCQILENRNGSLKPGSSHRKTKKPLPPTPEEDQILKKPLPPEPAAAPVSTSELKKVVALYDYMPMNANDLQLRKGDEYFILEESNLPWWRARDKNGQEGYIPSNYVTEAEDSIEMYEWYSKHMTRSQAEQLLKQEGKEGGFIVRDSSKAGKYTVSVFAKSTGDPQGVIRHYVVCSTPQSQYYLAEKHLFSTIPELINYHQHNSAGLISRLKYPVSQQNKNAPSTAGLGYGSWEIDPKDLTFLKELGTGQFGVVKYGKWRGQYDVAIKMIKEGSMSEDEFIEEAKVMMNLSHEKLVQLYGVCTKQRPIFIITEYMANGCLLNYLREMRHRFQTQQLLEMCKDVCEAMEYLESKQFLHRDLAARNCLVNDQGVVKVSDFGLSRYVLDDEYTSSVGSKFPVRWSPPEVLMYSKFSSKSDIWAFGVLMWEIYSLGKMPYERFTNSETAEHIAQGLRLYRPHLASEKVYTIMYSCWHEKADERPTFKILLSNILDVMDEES

[4] = target: Serine/threonine-protein kinase N1 (Homo sapiens) (UniProt Q16512); assay: Residual activity of PRK1 at 1 uM by microplate scintillation counting
[5] = target: Casein kinase II subunit alpha' (Homo sapiens) (UniProt P19784); assay: Residual activity of CK2alpha2 at 1 uM by microplate scintillation counting
Chain of Casein kinase II subunit alpha' (Homo sapiens) (P19784 whole entry, looked up): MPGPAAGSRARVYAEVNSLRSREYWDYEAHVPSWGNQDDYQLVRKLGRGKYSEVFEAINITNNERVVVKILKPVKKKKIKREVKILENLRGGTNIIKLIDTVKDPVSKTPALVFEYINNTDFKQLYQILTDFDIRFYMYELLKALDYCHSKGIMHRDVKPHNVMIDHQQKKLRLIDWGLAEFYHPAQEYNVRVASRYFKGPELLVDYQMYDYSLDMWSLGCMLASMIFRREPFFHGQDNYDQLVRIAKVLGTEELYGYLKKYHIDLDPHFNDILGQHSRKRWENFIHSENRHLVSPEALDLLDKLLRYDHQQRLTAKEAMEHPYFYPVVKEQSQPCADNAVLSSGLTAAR

[6] = target: Calcium/calmodulin-dependent protein kinase kinase 2 (Homo sapiens) (UniProt Q96RR4); assay: Residual activity of CAMKK2 at 10 uM by microplate scintillation counting
[7] = target: SRSF protein kinase 1 (Homo sapiens) (UniProt Q96SB4); assay: Residual activity of SRPK1 at 10 uM by microplate scintillation counting
[8] = target: Mitogen-activated protein kinase kinase kinase 14 (Homo sapiens) (UniProt Q99558); assay: Residual activity of NIK at 1 uM by microplate scintillation counting
Chain of Mitogen-activated protein kinase kinase kinase 14 (Homo sapiens) (Q99558 whole entry, looked up): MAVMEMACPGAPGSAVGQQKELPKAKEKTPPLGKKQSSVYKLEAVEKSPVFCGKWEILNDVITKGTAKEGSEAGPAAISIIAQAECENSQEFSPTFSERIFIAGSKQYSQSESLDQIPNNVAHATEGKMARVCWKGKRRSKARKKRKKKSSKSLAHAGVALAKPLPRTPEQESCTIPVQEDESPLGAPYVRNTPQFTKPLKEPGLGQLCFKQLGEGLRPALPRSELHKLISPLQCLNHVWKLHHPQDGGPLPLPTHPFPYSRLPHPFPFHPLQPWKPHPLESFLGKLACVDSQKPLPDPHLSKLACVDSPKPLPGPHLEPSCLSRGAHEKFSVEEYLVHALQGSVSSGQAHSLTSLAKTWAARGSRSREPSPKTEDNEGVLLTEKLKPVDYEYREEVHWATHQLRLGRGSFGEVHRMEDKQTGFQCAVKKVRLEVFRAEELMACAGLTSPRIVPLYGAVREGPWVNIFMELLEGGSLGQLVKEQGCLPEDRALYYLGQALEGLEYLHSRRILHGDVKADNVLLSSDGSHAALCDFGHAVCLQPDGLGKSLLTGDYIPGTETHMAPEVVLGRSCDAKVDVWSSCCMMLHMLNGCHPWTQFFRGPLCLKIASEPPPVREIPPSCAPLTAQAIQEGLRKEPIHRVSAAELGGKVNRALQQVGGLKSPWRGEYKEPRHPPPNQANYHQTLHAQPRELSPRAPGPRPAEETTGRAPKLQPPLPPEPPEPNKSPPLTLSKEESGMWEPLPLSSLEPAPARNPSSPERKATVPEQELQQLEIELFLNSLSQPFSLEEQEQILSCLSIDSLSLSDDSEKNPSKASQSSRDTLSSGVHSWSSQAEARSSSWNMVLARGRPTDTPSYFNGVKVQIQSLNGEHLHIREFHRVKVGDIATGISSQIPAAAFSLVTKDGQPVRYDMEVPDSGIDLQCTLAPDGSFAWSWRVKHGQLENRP

[9] = target: T3, Serine/threonine-protein kinase 4 (Homo sapiens) (UniProt Q13043); assay: Residual activity of MST1 at 1 uM by microplate scintillation counting
T3 sequence (whole entry): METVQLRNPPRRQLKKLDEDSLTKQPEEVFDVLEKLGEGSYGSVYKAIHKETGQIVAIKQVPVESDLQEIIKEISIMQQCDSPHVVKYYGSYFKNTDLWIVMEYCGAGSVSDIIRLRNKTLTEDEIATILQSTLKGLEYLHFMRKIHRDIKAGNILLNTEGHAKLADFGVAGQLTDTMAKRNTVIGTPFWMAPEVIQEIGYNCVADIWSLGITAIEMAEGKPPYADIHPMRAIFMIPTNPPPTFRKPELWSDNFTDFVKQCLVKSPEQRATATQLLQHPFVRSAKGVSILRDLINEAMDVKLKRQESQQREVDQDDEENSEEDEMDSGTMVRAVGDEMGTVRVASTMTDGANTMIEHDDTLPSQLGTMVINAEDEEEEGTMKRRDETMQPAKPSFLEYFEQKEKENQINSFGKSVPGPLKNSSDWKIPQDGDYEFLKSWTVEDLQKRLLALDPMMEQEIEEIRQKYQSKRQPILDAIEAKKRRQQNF

[10] = test system: Mast/stem cell growth factor receptor Kit (Homo sapiens), P10721 [T670I]; assay: Residual activity of KIT T670I mutant at 1 uM by microplate scintillation counting
Chain of Mast/stem cell growth factor receptor Kit (Homo sapiens), P10721 [T670I] (P10721 whole entry T670I): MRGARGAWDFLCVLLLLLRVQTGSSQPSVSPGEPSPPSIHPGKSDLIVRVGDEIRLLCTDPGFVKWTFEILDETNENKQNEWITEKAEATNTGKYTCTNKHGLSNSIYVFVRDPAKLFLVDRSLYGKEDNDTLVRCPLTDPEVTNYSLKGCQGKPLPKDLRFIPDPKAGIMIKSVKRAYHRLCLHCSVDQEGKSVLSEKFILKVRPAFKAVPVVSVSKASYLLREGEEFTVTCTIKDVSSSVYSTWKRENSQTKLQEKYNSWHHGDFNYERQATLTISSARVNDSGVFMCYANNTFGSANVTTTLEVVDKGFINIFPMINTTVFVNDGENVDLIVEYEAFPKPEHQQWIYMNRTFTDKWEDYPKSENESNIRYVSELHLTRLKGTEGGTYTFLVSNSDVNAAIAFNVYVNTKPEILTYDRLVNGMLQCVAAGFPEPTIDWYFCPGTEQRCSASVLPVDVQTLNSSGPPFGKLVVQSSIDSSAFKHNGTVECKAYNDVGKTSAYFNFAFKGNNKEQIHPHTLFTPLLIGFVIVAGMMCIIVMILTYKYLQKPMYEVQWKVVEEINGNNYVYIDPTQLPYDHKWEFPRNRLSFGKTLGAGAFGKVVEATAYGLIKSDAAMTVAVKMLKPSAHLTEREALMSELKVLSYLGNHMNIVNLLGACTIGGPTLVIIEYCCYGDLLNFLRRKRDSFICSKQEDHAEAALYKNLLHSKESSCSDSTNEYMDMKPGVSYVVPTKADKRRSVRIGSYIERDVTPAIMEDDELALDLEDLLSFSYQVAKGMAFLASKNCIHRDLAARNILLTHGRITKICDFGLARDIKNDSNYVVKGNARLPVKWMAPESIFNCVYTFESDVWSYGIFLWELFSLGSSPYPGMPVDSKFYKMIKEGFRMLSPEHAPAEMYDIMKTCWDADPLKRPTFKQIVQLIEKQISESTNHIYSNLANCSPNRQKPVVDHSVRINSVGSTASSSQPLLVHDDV

[11] = target: Serine/threonine-protein kinase 24 (Homo sapiens) (UniProt Q9Y6E0); assay: Residual activity of MST3 at 1 uM by microplate scintillation counting
Chain of Serine/threonine-protein kinase 24 (Homo sapiens) (Q9Y6E0 whole entry, looked up): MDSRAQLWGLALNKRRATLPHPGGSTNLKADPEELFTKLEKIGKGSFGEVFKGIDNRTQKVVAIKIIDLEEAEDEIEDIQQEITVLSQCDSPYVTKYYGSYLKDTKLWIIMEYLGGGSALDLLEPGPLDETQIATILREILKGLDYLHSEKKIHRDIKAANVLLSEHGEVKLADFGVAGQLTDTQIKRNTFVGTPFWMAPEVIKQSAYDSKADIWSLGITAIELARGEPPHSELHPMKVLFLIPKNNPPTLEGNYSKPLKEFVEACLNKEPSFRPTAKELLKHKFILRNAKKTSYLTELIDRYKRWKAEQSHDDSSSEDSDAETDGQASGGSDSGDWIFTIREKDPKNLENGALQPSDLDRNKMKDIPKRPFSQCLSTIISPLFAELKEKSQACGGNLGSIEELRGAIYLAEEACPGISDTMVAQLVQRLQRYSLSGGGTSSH

[12] = target: Platelet-derived growth factor receptor alpha (Homo sapiens) (UniProt P16234); assay: Residual activity of PDGFRalpha at 10 uM by microplate scintillation counting
Chain of Platelet-derived growth factor receptor alpha (Homo sapiens) (P16234 whole entry): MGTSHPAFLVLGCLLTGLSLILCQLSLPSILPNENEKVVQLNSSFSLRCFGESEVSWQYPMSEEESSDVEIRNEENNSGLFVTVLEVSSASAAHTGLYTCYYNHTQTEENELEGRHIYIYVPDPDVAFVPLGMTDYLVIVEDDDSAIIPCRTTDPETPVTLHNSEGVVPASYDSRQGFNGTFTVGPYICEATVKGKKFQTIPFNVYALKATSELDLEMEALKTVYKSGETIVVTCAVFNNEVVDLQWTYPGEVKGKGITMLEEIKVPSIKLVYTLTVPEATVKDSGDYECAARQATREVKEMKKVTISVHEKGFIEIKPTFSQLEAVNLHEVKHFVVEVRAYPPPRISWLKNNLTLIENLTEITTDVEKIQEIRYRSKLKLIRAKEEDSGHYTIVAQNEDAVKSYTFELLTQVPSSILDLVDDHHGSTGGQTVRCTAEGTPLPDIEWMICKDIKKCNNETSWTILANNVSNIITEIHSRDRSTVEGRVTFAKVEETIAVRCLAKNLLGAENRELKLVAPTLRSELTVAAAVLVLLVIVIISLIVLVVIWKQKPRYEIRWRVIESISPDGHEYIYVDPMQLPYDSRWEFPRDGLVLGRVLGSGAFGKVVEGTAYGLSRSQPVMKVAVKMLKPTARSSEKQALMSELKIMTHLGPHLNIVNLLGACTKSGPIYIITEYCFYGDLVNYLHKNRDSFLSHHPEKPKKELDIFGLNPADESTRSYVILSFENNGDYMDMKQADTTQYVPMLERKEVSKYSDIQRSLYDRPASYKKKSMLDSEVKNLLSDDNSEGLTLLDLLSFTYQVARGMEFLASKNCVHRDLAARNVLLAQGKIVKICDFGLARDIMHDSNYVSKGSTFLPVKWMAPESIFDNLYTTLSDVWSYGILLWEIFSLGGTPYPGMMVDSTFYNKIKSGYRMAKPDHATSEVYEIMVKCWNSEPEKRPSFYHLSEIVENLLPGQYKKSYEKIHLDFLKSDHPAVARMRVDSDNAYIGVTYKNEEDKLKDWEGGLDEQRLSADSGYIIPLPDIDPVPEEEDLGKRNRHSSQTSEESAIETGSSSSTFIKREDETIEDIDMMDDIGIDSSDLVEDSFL

[13] = target: Dual specificity mitogen-activated protein kinase kinase 1 (Homo sapiens) (UniProt Q02750); assay: Residual activity of wild type MEK1 at 0.1 uM by microplate scintillation counting
Chain of Dual specificity mitogen-activated protein kinase kinase 1 (Homo sapiens) (Q02750 whole entry): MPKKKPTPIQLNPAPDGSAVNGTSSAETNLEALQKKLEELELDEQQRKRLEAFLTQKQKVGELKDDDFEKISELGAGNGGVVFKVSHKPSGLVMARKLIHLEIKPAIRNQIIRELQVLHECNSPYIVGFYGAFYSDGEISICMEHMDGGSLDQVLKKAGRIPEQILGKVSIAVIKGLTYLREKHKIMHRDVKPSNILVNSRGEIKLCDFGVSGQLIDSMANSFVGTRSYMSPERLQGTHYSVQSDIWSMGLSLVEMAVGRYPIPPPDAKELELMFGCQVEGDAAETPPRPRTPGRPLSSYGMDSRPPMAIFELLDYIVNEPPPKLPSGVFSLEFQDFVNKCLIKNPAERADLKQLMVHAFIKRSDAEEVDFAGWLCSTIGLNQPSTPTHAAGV

Angiopoietin-1 receptor = Angiopoietin-1 receptor (Homo sapiens, UniProt Q02763); assay: Residual activity of TIE2 at 1 uM by microplate scintillation counting

residual activity [1] [%]	residual activity [2] [%]	residual activity [3] [%]	residual activity [4] [%]	residual activity [5] [%]	residual activity [6] [%]	residual activity [7] [%]	residual activity [8] [%]	residual activity [9] [%]	residual activity [10] [%]	residual activity [11] [%]	residual activity [12] [%]	residual activity [13] [%]	residual activity (Angiopoietin-1 receptor) [%]	Compound
4	56	163	97	88	97	107	93	81	73	113	15	101	23	COc1cc2c(Oc3ccc(-c4nc5ccccc5s4)cc3)ncnc2cc1OCCCN1CCCC1
4	80	114	99	89	112	64	88	101	65	122	30	79	16	COc1cc2c(Oc3ccc(-c4nc5ccccc5s4)cc3F)ncnc2cc1OCCCN1CCN(C)CC1
5	63	124	98	96	109	98	85	87	73	118	20	87	22	COc1cc2c(Oc3ccc(-c4nc5ccccc5s4)cc3)ncnc2cc1OCCCN1CCN(C)CC1
